Assay [1] deals with influenza virus polymerase (Influenza A virus, UniProt P03433). In words: cell-based. It counts as cell-based, influenza virus A/PR/8/34.
In assay [2] the target is Pandemic H1N1 N-terminal PA endonuclease (PAN) (Influenza A virus, UniProt C3W5S0). In words: FRET-based. It is filed as biochemical.
Setting [3] is: Inhibition of polymerase activity EC50.
Where [4] appears, read: read-out: Inhibition of polymerase activity EC50.

Where two headings read alike, the source gives them in different places.

In the case of `O=C1c2c(ccc(O)c2O)CN1Cc1ccccc1` [Compound 14, 2-benzyl-6,7-dihydroxyisoindolin-1-one], a half-maximal effect in assay [1] (setting [3]) (EC50) was put at 12 µM. For the same compound, the 50% inhibitory concentration (IC50) – broadly, the point on the concentration scale where inhibition reaches its midpoint – in assay [2] lay in the range of 23 to 46 nM.

Turning to `O=C1c2c(ccc(O)c2O)CN1Cc1ccc(F)c(Cl)c1` [Compound 15, 2-(3-chloro-4-fluorobenzyl)-6,7-dihydroxyisoindolin-1-one], in assay [1], the “EC50/IC50 ratio (cellular versus enzyme assay)” value was 145. Also, the EC50 (usually the concentration giving half of the maximal effect) in assay [1] (setting [3]) was determined as 3.6 µM. Besides, in assay [2], the IC50 fell in the range of 23 to 46 nM.

In the case of `Cc1ccc(CN2Cc3ccc(O)c(O)c3C2=O)cc1` [Compound 16, 2-(4-methylbenzyl)-6,7-dihydroxy-isoindolin-1-one], in assay [1] (setting [4]), the EC50 was determined as 4.1 µM.

For the compound `O=C1c2c(ccc(O)c2O)CN1Cc1ccc(O)cc1` [Compound 17, 2-(4-hydroxybenzyl)-6,7-dihydroxy-isoindolin-1-one], the “Fold increase in EC50 compared to wild-type” value in assay [1] came out at 1.0 fold. This compound came in with an EC50 in assay [1] (setting [3]) of 4.2 µM. In assay [2], this compound registered an IC50 of 23 to 46 nM.

For the compound `O=C1c2c(ccc(O)c2O)CN1Cc1ccc(F)cc1` [Compound 18, 2-(4-fluorobenzyl)-6,7-dihydroxyisoindolin-1-one], in assay [1] (setting [3]), the half-maximal effective concentration (EC50) was found to be 8.2 µM. Besides, in assay [2], the IC50 is 23 to 46 nM.

With `O=C1c2c(ccc(O)c2O)CN1Cc1ccc(C(F)(F)F)cc1` [Compound 19, 2-(4-(trifluoromethyl)benzyl)-6,7-dihydroxy-isoindolin-1-one], the half-maximal effective concentration (EC50) in assay [1] (setting [3]) came to 19 µM. Further, in assay [2] (factor, relative to 18), the “Reduction of PAN inhibitory activity compared to the 4-F analogue 18” value worked out at 9 fold.

`O=C1c2c(ccc(O)c2O)CN1Cc1ccc([N+](=O)[O-])cc1` [Compound 20, 2-(4-nitrobenzyl)-6,7-dihydroxy-isoindolin-1-one]: it took 28 µM to reach a half-maximal effect in assay [1] (setting [3]) (EC50). For the same compound, the IC50 in assay [2] fell in the range of 23 to 46 nM.

In assay [1] (setting [3]), `O=C1c2c(ccc(O)c2O)CN1Cc1ccc2ccccc2c1` [Compound 21, 2-(naphthalen-2-ylmethyl)-6,7-dihydroxy-isoindolin-1-one] gave an EC50 of 5.4 µM. The compound also yielded an IC50 in assay [2] of 30 nM.

`O=C1c2c(ccc(O)c2O)CN1Cc1cccc2ccccc12` [Compound 22, 2-(naphthalen-1-ylmethyl)-6,7-dihydroxy-isoindolin-1-one] gave an EC50 in assay [1] (setting [3]) of 26 µM.

On to `O=C1c2c(ccc(O)c2O)CN1CCc1ccc(O)cc1` [Compound 23, 2-(4-hydroxyphenethyl)-6,7-dihydroxy-isoindolin-1-one], for which the EC50 in assay [1] (setting [4]) is 19 µM.

`NC(=O)c1ncn([C@@H]2O[C@H](CO)[C@@H](O)[C@H]2O)n1` [Ribavirin, ribavirin] came in with an EC50 in assay [1] (setting [3]) of 11 µM.

Regarding baloxavir acid [BXA], the “Fold increase in EC50 compared to wild-type” value in assay [1] turned out to be 1.0 fold. In addition, the half-maximal effective concentration (EC50) in assay [1] (setting [4]) turned out to be 0.0016 µM.

The values above are taken from paper PMC8838982 (Bioorganic chemistry, 2021).
